In patent publication US20250275976A1, “Methods of Treating Neuroinflammatory Conditions” (Athira Pharma, Inc., priority 2022, published 2025):
“Also recorded” adds a separate entry of the source. Read-outs that look alike come from different tables or passages of the source. Square brackets hold non-standard residues; d marks the D form. Peptide text beside a SMILES is read from it. * marks the point of attachment. Hexanoyl = CCCCCC(=O)*; Ahx = NCCCCCC(=O)O

Key:
male CD-1 mice = experiment: T-maze spontaneous alternation, LPS-induced cognitive deficit; type: in vivo, mouse; details: for Spontaneous alternation (%) Mean: LPS 250 μg/kg i.p.; for Recovery (%): saline/vehicle = 100%, LPS/vehicle = 0%
From the text: Encephalitis refers to inflammation of the brain that may result in brain swelling fever, headache, confusion, and seizures. The source of neuroinflammation can vary widely, including due to viral, bacterial, parasitic, or fungal infection or due to autoimmune diseases. Lipopolysaccharide (LPS) is a bacterial endotoxin that induces an intense neuroinflammatory reaction and has been associated with cognitive decline. The ability of Compound A19 to reverse cognitive decline induced by LPS in a mouse model of encephalitis was studied using a T-maze assay. In a separate substantially similar assay, Compounds 1a and 5a were also assessed.
Spontaneous and continuous alternation is the innate tendency of rodents to alternate free choices in a T-maze (T-CAT) over a series of successive runs. This sequential procedure relies on working memory and is sensitive to various pharmacological manipulations affecting memory processes. The present studies were conducted to evaluate the abilities of Compound A19, Compound 1a and Compound 5a to reverse LPS-induced cognitive deficit in the T-maze assay.
Compound A19 was dissolved in 0.9% NaCl (saline) and vortexed periodically until complete dissolution and with the pH adjusted between 7.4 and 7.8. Compound A19 was used in concentrations of 0.125, 0.1, 0.05, 0.025 and 0.0125 mg/ml which when given in a volume of 10 ml/kg result in doses of 1.25, 1, 0.5, 0.25 and 0.125 mg/kg, respectively. Compound 1a was dissolved at 160 mg/ml in 100% DMSO and vortexed until complete dissolution. Then the above stock solution was diluted in 20% PEG-400 and 78% 0.9% NaCl, whereby the stock solution comprised 2% of the final solution. Compound 1a was used in concentrations of 0.05, 0.2, 0.8, 1.6 and 3.2 mg/ml which when given in a volume of 10 ml/kg result in doses of 0.5, 2, 8, 16 and 32 mg/kg, respectively. Compound 5a was dissolved at 100 mg/ml in 100% DMSO and vortexed until complete dissolution. Then the above stock solution was diluted in 20% PEG-400 and 78% 0.9% NaCl, whereby the stock solution comprised 2% of the final solution. Compound 5a was used in concentrations of 0.125, 0.25, 0.5, 1 and 2 mg/ml which when given in a volume of 10 ml/kg result in doses of 1.25, 2.5, 5, 10 and 20 mg/kg, respectively.
Memantine was dissolved in saline. Memantine was used in concentration of 0.1 and 0.01 mg/ml, which when given in a volume of 10 ml/kg result in a dose of 1 and 0.1 mg/kg, respectively. Memantine is approved for symptomatic treatment of Alzheimer's disease was used as a reference compound.
LPS was dissolved in saline and prepared at a concentration of 0.0125 mg/ml and given intraperitoneally (i.p.) at a dosage volume of 20 ml/kg to yield a dose of 0.25 mg/kg ([…]).
Four to five weeks old male CD-1 mice (Janvier; Le Genest St Isle - France) were used for the study.
LPS was injected i.p. 2 weeks prior the T-maze trial. Compound 1a was tested at doses of 0.5, 2, 8, 16, and 32 mg/kg administered orally (p.o.) for 14 days with last treatment given 60 min before the T-maze trial. Compound 5a was tested at the doses of 1.25, 2.5, 5, 10, and 20 mg/kg administered orally (p.o.) for 14 days with last treatment given 60 min before the T-maze trial. LPS was injected i.p. 2 weeks prior the T-maze trial.
The T-maze apparatus was made of gray Plexiglas with a main stem (55 cm long×10 cm wide×20 cm high) and two arms (30 cm long×10 cm wide×20 cm high) positioned at a 90-degree angle relative to the main stem. A start box (15 cm long×10 cm wide) was separated from the main stem by a guillotine door. Horizontal doors were also provided to close specific arms during the force choice alternation task.
The experimental protocol consisted of a single session, which started with one “forced-choice” trial, followed by 14 “free-choice” trials. In the “forced-choice” trial, the animal was confined 5 seconds in the start arm and was then released while either the left or right goal arm was blocked by a horizontal door. […]

[1] = tested on: Rat primary cortical neuron cultures; details: LPS 24 h
[2] = tested on: Rat primary cortical neuron cultures; experiment: Neuroprotection of rat primary cortical neurons against neurotoxic insults (Cell Titer-Glo viability); type: cell-based
From the text: HGF/MET signaling activation is expected to protect cells, including neurons, from cell death. […] Hydrogen peroxide (H2O2) treatment produces toxic oxidative stress. Bacteria-derived lipopolysaccharide (LPS) treatment induces inflammatory cell death. Treatment with excess glutamate (Glut) produces excitotoxicity in neuron cultures. Treatment with 1-methyl-4-phenylpyridinium (MPP^+) causes cell death by inhibition of mitochondrial function.
Cells were then subjected to individual conditional insults for 24 hours at the following concentrations: H2O2 at 1 uM, LPS at 1 uM, glutamate at 25 uM, or MPP+ at 500 uM. All treatments contained recombinant human HGF (R&D Systems) at a concentration of 5 ng/ml. MK-801 (Dizocilpine) is a pore blocker of the N-Methyl-D-aspartate (NMDA) receptor, a glutamate receptor, and was used as a positive control.
Data was normalized to DMSO+HGF control set at 100% cell viability.
Data are reported as statistical significance vs. insult control, with NS=not significant, +=p<0.05, ++=p<0.01, and +++=p<0.001.

CCC(C)CN1CC2N(Cc3ccc(C(F)(F)F)cc3)CCC(=O)N2[C@@H](C)C1=O (some centres unmarked) [Compound 5a]
Reversal of LPS-induced cognitive deficit in T-maze (result in words) (male CD-1 mice; ANOVA, Fisher's PLSD, p<0.05, doses as in the value): significant reversal of LPS-induced cognitive deficits at all doses; also recorded: reversed the LPS-induced cognitive disruption | Spontaneous alternation (%) Mean (male CD-1 mice; Compound 5a 1.25 mg/kg p.o. daily 14 days): 59% | Spontaneous alternation (%) Mean (male CD-1 mice; Compound 5a 1.25 mg/kg p.o. daily 14 days, listed as Cmpd 5a): 59.3% | Recovery (%) (male CD-1 mice; Compound 5a 1.25 mg/kg p.o.): 58% | Spontaneous alternation (%) Mean (male CD-1 mice; Compound 5a 2.5 mg/kg p.o. daily 14 days): 58% | Spontaneous alternation (%) Mean (male CD-1 mice; Compound 5a 2.5 mg/kg p.o. daily 14 days, listed as Cmpd 5a): 57.9% | Recovery (%) (male CD-1 mice; Compound 5a 2.5 mg/kg p.o.): 53% | Spontaneous alternation (%) Mean (male CD-1 mice; Compound 5a 5 mg/kg p.o. daily 14 days): 61% | Spontaneous alternation (%) Mean (male CD-1 mice; Compound 5a 5 mg/kg p.o. daily 14 days, listed as Cmpd 5a): 60.7% | Recovery (%) (male CD-1 mice; Compound 5a 5 mg/kg p.o.): 64% | Spontaneous alternation (%) Mean (male CD-1 mice; Compound 5a 10 mg/kg p.o. daily 14 days): 58% | Spontaneous alternation (%) Mean (male CD-1 mice; Compound 5a 10 mg/kg p.o. daily 14 days, listed as Cmpd 5a): 57.9% | Recovery (%) (male CD-1 mice; Compound 5a 10 mg/kg p.o.): 53% | Spontaneous alternation (%) Mean (male CD-1 mice; Compound 5a 20 mg/kg p.o. daily 14 days): 60% | Spontaneous alternation (%) Mean (male CD-1 mice; Compound 5a 20 mg/kg p.o. daily 14 days, listed as Cmpd 5a): 60.0% | Recovery (%) (male CD-1 mice; Compound 5a 20 mg/kg p.o.): 61% | Significance of neuroprotection vs 1 uM LPS ([1]; dose 0.1 nM): +++ (+++ indicates p<0.001) | Significance of neuroprotection vs 1 uM LPS ([1]; dose 1 nM): +++ (+++ indicates p<0.001) | Significance of neuroprotection vs 1 uM LPS ([1]; dose 10 nM): +++ (+++ indicates p<0.001) | Significance of neuroprotection vs 1 uM LPS ([1]; dose 100 nM): +++ (+++ indicates p<0.001) | Significance of neuroprotection vs 1 uM LPS ([1]; dose 1 μM): +++ (+++ indicates p<0.001)

CCCCCC(=O)N[C@@H](Cc1ccc(O)cc1)C(=O)N[C@H](C(=O)NCCCCCC(N)=O)[C@@H](C)CC [Compound A19 active metabolite, dihexa] (Hexanoyl-Tyr-Ile-[Ahx]-NH2)
Statistical significance vs. insult control (cell viability) ([2]; Glutamate (25 uM) insult, [Compound A19 active metabolite] 0.1 nM + HGF (5 ng/ml)): + (+ = p < 0.05) | Statistical significance vs. insult control (cell viability) ([2]; Glutamate (25 uM) insult, [Compound A19 active metabolite] 1 nM + HGF (5 ng/ml)): ++ (++ = p < 0.01) | Statistical significance vs. insult control (cell viability) ([2]; Glutamate (25 uM) insult, [Compound A19 active metabolite] 100 nM (second column headed 100 nM) + HGF (5 ng/ml)): + (+ = p < 0.05) | Statistical significance vs. insult control (cell viability) ([2]; Glutamate (25 uM) insult, [Compound A19 active metabolite] 100 nM + HGF (5 ng/ml)): + (+ = p < 0.05) | Statistical significance vs. insult control (cell viability) ([2]; H2O2 (1 uM) insult, [Compound A19 active metabolite] 0.1 nM + HGF (5 ng/ml)): +++ (+++ = p < 0.001) | Statistical significance vs. insult control (cell viability) ([2]; H2O2 (1 uM) insult, [Compound A19 active metabolite] 1 nM + HGF (5 ng/ml)): +++ (+++ = p < 0.001) | Statistical significance vs. insult control (cell viability) ([2]; H2O2 (1 uM) insult, [Compound A19 active metabolite] 100 nM (second column headed 100 nM) + HGF (5 ng/ml)): +++ (+++ = p < 0.001) | Statistical significance vs. insult control (cell viability) ([2]; H2O2 (1 uM) insult, [Compound A19 active metabolite] 100 nM + HGF (5 ng/ml)): +++ (+++ = p < 0.001) | Statistical significance vs. insult control (cell viability) ([2]; H2O2 (1 uM) insult, [Compound A19 active metabolite] 1 uM + HGF (5 ng/ml)): +++ (+++ = p < 0.001) | Neuroprotection against the cohort of insults (result in words) ([2]; H2O2, glutamate, LPS, MPP+, broad range of concentrations): effective neuroprotective treatment at a broad range of concentrations against the entire cohort of insults tested | Statistical significance vs. insult control (cell viability) ([2]; LPS (1 uM) insult, [Compound A19 active metabolite] 0.1 nM + HGF (5 ng/ml)): ++ (++ = p < 0.01) | Statistical significance vs. insult control (cell viability) ([2]; LPS (1 uM) insult, [Compound A19 active metabolite] 1 nM + HGF (5 ng/ml)): ++ (++ = p < 0.01) | Statistical significance vs. insult control (cell viability) ([2]; LPS (1 uM) insult, [Compound A19 active metabolite] 100 nM (second column headed 100 nM) + HGF (5 ng/ml)): +++ (+++ = p < 0.001) | Statistical significance vs. insult control (cell viability) ([2]; LPS (1 uM) insult, [Compound A19 active metabolite] 100 nM + HGF (5 ng/ml)): ++ (++ = p < 0.01) | Statistical significance vs. insult control (cell viability) ([2]; LPS (1 uM) insult, [Compound A19 active metabolite] 1 uM + HGF (5 ng/ml)): ++ (++ = p < 0.01) | Statistical significance vs. insult control (cell viability) ([2]; MPP+ (500 uM) insult, [Compound A19 active metabolite] 0.1 nM + HGF (5 ng/ml)): +++ (+++ = p < 0.001) | Statistical significance vs. insult control (cell viability) ([2]; MPP+ (500 uM) insult, [Compound A19 active metabolite] 1 nM + HGF (5 ng/ml)): +++ (+++ = p < 0.001) | Statistical significance vs. insult control (cell viability) ([2]; MPP+ (500 uM) insult, [Compound A19 active metabolite] 100 nM (second column headed 100 nM) + HGF (5 ng/ml)): +++ (+++ = p < 0.001) | Statistical significance vs. insult control (cell viability) ([2]; MPP+ (500 uM) insult, [Compound A19 active metabolite] 100 nM + HGF (5 ng/ml)): +++ (+++ = p < 0.001) | Statistical significance vs. insult control (cell viability) ([2]; MPP+ (500 uM) insult, [Compound A19 active metabolite] 1 uM + HGF (5 ng/ml)): +++ (+++ = p < 0.001)
